From patent US8207216B2, “Benzofuran-3-yl(indol-3-yl) maleimides as potent GSK3 inhibitors” (The Board of Trustees of the University of Illinois, priority 2006, dated 2012)

Assays:
[1] = target: CDK-2/cyclinE (Homo sapiens, UniProt P24941); experiment: CDK-2/CyclinE inhibition (Reaction Biology); format: biochemical; details: for IC50 Ratio CDK-2/cyclinE GSK-3β: selectivity ratio; for IC50: tested at Reaction Biology, Inc.
[2] = target: T1, recombinant human His6-GSK-3β (Homo sapiens, UniProt P49841); experiment: GSK-3β kinase assay, [γ32P] transfer to primed glycogen synthase peptide; format: biochemical; details: for IC50: 10 μM ATP, 10 μM pGSM peptide, 30 minutes at 30° C., read-out: IC50 (nM), GSK-3β inhibition;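 as to all read-outs here: phosphate incorporation quantified by liquid scintillation counting of the filters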
T1 construct: His6; purchased EMD Biosciences
T1 sequence (P49841 whole entry): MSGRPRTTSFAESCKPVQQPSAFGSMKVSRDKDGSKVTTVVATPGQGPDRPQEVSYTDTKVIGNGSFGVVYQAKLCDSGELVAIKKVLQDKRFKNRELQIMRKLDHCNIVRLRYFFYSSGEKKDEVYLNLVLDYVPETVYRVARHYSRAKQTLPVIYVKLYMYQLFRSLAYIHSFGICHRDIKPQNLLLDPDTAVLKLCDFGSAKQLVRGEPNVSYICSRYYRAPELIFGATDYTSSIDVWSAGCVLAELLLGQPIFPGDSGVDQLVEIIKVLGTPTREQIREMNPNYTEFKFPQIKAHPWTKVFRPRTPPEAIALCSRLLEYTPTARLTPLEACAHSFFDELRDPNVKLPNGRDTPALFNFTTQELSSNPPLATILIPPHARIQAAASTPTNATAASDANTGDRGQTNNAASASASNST

[3] = test system: MIAPaCa-2; experiment: Antiproliferation MTS assay, pancreatic cancer cells; format: cell-based; details: Homo sapiens, MIA PaCa-2; 72 hrs, MTS

Molecule	IC50 [2] [nM]	further results
Cn1cc(C2=C(c3coc4ccccc34)C(=O)NC2=O)c2cccc(CO)c21 [Compound 82]	–	IC50 Ratio CDK-2/cyclinE GSK-3β [1]: 27; IC50 [1]: 149 nM
O=C1NC(=O)C(c2coc3ccccc23)=C1c1c[nH]c2ccc(OCc3ccccc3)cc12 [Compound 44, 3-Benzofuran-3-yl-4-(5-benzyloxy-1H-indol-3-yl)-pyrrole-2,5-dione]	1650 ± 200	IC50 [3]: 21 µM
O=C1NC(=O)C(c2coc3ccc(F)cc23)=C1c1c[nH]c2ccccc12 [Compound 2, 3-(5-Fluoro-benzofuran-3-yl)-4-(1H-indol-3-yl)-pyrrole-2,5-dione]	670 ± 40	–
Cn1cc(C2=C(c3coc4ccc(Br)cc34)C(=O)NC2=O)c2ccccc21 [Compound 3, 3-(5-Bromo-benzofuran-3-yl)-4-(1-methyl-1H-indol-3-yl)-pyrrole-2,5-dione]	550 ± 20	–
COc1cccc2c(C3=C(c4cn(C)c5ccccc45)C(=O)NC3=O)coc12 [Compound 4, 3-(7-Methoxy-benzofuran-3-yl)-4-(1-methyl-1H-indol-3-yl)-pyrrole-2,5-dione]	180 ± 15	–
O=C1NC(=O)C(c2cn(CCCO)c3ccc(OCc4ccccc4)cc23)=C1c1coc2ccccc12 [Compound 32, 3-Benzofuran-3-yl-4-[5-benzyloxy-1-(3-hydroxy-propyl)-1H-indol-3-yl]-pyrrole-2,5-dione]	220 ± 30	–
COc1cc2c(C3=C(c4coc5ccccc45)C(=O)NC3=O)cn(C)c2cc1I [Compound 43, 3-Benzofuran-3-yl-4-(6-iodo-5-methoxy-1-methyl-1H-indol-3-yl)-pyrrole-2,5-dione]	223 ± 22	–
Cn1cc(C2=C(c3coc4ccccc34)C(=O)NC2=O)c2ccc(OCc3ccccc3)cc21 [Compound 47, 3-Benzofuran-3-yl-4-(6-benzyloxy-1-methyl-1H-indol-3-yl)-pyrrole-2,5-dione]	900 ± 80	–
Cn1cc(C2=C(c3coc4ccccc34)C(=O)NC2=O)c2cc(N3CCOCC3)ccc21 [Compound 39, 3-Benzofuran-3-yl-4-(1-methyl-5-morpholin-4-yl-1H-indol-3-yl)-pyrrole-2,5-dione]	1300 ± 146	–
Cn1cc(C2=C(c3coc4ccccc34)C(=O)NC2=O)c2cccc(CO)c21 [Compound 50, 3-Benzofuran-3-yl-4-(7-hydroxymethyl-1-methyl-1H-indol-3-yl)-pyrrole-2,5-dione]	5.4 ± 0.7	–
Cn1cc(C2=C(c3coc4ccccc34)C(=O)NC2=O)c2cc(C3CC3)ccc21 [Compound 37, 3-Benzofuran-3-yl-4-(5-cyclopropyl-1-methyl-1H-indol-3-yl)-pyrrole-2,5-dione]	235 ± 15	IC50 [1]: 32000 nM
Cn1cc(C2=C(c3coc4ccccc34)C(=O)NC2=O)c2cc(O)ccc21 [Compound 30, 3-Benzofuran-3-yl-4-(5-hydroxy-1-methyl-1H-indol-3-yl)-pyrrole-2,5-dione]	690 ± 100	–
Cn1cc(C2=C(c3coc4ccccc34)C(=O)NC2=O)c2cc(OCc3ccccc3)ccc21 [Compound 31, 3-Benzofuran-3-yl-4-(5-benzyloxy-1-methyl-1H-indol-3-yl)-pyrrole-2,5-dione]	500 ± 60	–
Cn1cc(C2=C(c3coc4cc(CO)ccc34)C(=O)NC2=O)c2cccc(CO)c21 [Compound 51, 3-(6-Hydroxymethyl-benzofuran-3-yl)-4-(7-hydroxymethyl-1-methyl-1H-indol-3-yl)-pyrrole-2,5-dione]	5.1 ± 1.2	–
O=C1NC(=O)C(c2coc3ccccc23)=C1c1c[nH]c2ccc(F)cc12 [Compound 5, 3-Benzofuran-3-yl-4-(5-fluoro-1H-indol-3-yl)-pyrrole-2,5-dione]	360 ± 40	IC50 [3]: 21 µM
COc1cccc2c(C3=C(c4cn(C)c5cc(-c6ccc(Cl)cc6)c(F)cc45)C(=O)NC3=O)coc12 [Compound 18, 3-[6-(4-Chlorophenyl)-5-fluoro-1-methyl-1H-indol-3-yl]-4-(7-methoxy-benzofuran-3-yl)-pyrrole-2,5-dione]	7160 ± 1200	–
CCOC(=O)CCc1cccc2c(C3=C(c4coc5ccccc45)C(=O)NC3=O)cn(C)c12 [Compound 93]	10.2 ± 3.6	–
COc1ccc(COc2ccc3c(C4=C(c5cn(C)c6ccc(Br)cc56)C(=O)NC4=O)coc3c2)cc1 [Compound 25, 3-(5-Bromo-1-methyl-1H-indol-3-yl)-4-[6-(4-methoxy-benzyloxy)-benzofuran-3-yl]-pyrrole-2,5-dione]	335 ± 37	–
3-(6-Chloro-5-methoxy-1-methyl-1H-indol-3-yl)-4-(6-methoxy-benzofuran-3-yl)-pyrrole-2,5-dione [Compound 14]	870 ± 160	Ki [2]: 580 nM
Cn1cc(C2=C(c3coc4ccc(F)cc34)C(=O)NC2=O)c2cc(Cl)ccc21 [Compound 27, 3-(5-Chloro-1-methyl-1H-indol-3-yl)-4-(5-fluoro-benzofuran-3-yl)-pyrrole-2,5-dione]	34.5 ± 3.8	IC50 Ratio CDK-2/cyclinE GSK-3β [1]: 2.6; IC50 [1]: 1840 nM
Cn1cc(C2=C(c3coc4cc(CO)ccc34)C(=O)NC2=O)c2cccc(CO)c21 [Compound 83]	–	IC50 Ratio CDK-2/cyclinE GSK-3β [1]: 5; IC50 [1]: 27 nM
COc1cccc2c(C3=C(c4cn(C)c5c(Br)cc(Br)cc45)C(=O)NC3=O)coc12 [Compound 26, 3-(5,7-Dibromo-1-methyl-1H-indol-3-yl)-4-(7-methoxy-benzofuran-3-yl)-pyrrole-2,5-dione]	88.7 ± 5.6	–
Cn1cc(C2=C(c3coc4cc(CO)ccc34)C(=O)NC2=O)c2cc(F)ccc21 [Compound 7, 3-(5-Fluoro-1-methyl-1H-indol-3-yl)-4-(6-hydroxymethyl-benzofuran-3-yl)-pyrrole-2,5-dione]	0.35 ± 0.06	IC50 [1]: 237 nM
Cn1cc(C2=C(c3coc4ccccc34)C(=O)NC2=O)c2cccc(OCc3ccccc3)c21 [Compound 54, 3-Benzofuran-3-yl-4-(7-benzyloxy-1-methyl-1H-indol-3-yl)-pyrrole-2,5-dione]	220 ± 45	–
Cn1cc(C2=C(c3coc4ccc(F)cc34)C(=O)NC2=O)c2cc(I)ccc21 [Compound 29, 3-(5-Fluoro-benzofuran-3-yl)-4-(5-iodo-1-methyl-1H-indol-3-yl)-pyrrole-2,5-dione]	180 ± 11	–

Second part, led by results:

IC50 [2] [nM]	Molecule	further results
1.2 ± 0.2	Cn1cc(C2=C(c3coc4ccccc34)C(=O)NC2=O)c2cccc(CCC(=O)O)c21 [Compound 86]	–
125 ± 35	COc1ccc2c(c1)c(C1=C(c3coc4ccccc34)C(=O)NC1=O)cn2C [Compound 41, 3-Benzofuran-3-yl-4-(5-methoxy-1-methyl-1H-indol-3-yl)-pyrrole-2,5-dione]	–
55 ± 8	Cn1cc(C2=C(c3coc4ccccc34)C(=O)NC2=O)c2cccc(O)c21 [Compound 53, 3-Benzofuran-3-yl-4-(7-hydroxy-1-methyl-1H-indol-3-yl)-pyrrole-2,5-dione]	–
0.35 ± 0.06	CN1C(=O)C(c2coc3cc(CO)ccc23)=C(c2cn(C)c3ccc(F)cc23)C1=O [Compound 56, 3-(5-Fluoro-1-methyl-1H-indol-3-yl)-4-(6-hydroxymethyl-benzofuran-3-yl)-1-methyl-pyrrole-2,5-dione]	–
13.2 ± 3.2	Cn1cc(C2=C(c3coc4cc(CO)ccc34)C(=O)NC2=O)c2cc(C#N)ccc21 [Compound 34, 3-[4-(6-Hydroxymethyl-benzofuran-3-yl)-2,5-dioxo-2,5-dihydro-1H-pyrrol-3-yl]-1-methyl-1H-indole-5-carbonitrile]	–
26 ± 6	Cn1cc(C2=C(c3coc4ccccc34)C(=O)NC2=O)c2cc(F)ccc21 [Compound 6, 3-Benzofuran-3-yl-4-(5-fluoro-1-methyl-1H-indol-3-yl)-pyrrole-2,5-dione]	–
59.7 ± 6.57	COc1cccc2c(C3=C(c4cn(C)c5cc(Br)c(F)cc45)C(=O)NC3=O)coc12 [Compound 11, 3-(6-Bromo-5-fluoro-1-methyl-1H-indol-3-yl)-4-(7-methoxy-benzofuran-3-yl)-pyrrole-2,5-dione]	–
3.5 ± 1.3	Cn1cc(C2=C(c3coc4cc(O)ccc34)C(=O)NC2=O)c2cc(F)ccc21 [Compound 9, 3-(5-Fluoro-1-methyl-1H-indol-3-yl)-4-(6-hydroxy-benzofuran-3-yl)-pyrrole-2,5-dione]	–
48.3 ± 7	C=CCOc1ccc2c(C3=C(c4cn(C)c5ccc(Br)cc45)C(=O)NC3=O)coc2c1 [Compound 24, 3-(6-Allyloxy-benzofuran-3-yl)-4-(5-bromo-1-methyl-1H-indol-3-yl)-pyrrole-2,5-dione]	–
160 ± 35	Cn1cc(C2=C(c3coc4ccc(F)cc34)C(=O)NC2=O)c2ccc(OCc3ccccc3)cc21 [Compound 48, 3-(6-Benzyloxy-1-methyl-1H-indol-3-yl)-4-(5-fluoro-benzofuran-3-yl)-pyrrole-2,5-dione]	IC50 [3]: 80 µM
0.73 ± 0.1	COCc1cccc2c(C3=C(c4coc5cc(CO)ccc45)C(=O)NC3=O)cn(C)c12 [Compound 92]	–
